Like-named read-outs stand apart in the source and are kept apart here.
Experiments:
Assay type in all cases: biochemical
human Lck enzyme = target: T1, human Lck enzyme (Homo sapiens, UniProt P06239); experiment: Lck enzyme inhibitory activity (time-resolved fluorometry, biotinylated peptide phosphorylation); settings: read-out: LCK_IC50
T1 construct: purchased Carna Biosciences, Inc. 08-170
Method in brief: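 Readout pairs a europium cryptate-labelled anti-phosphotyrosine antibody with XL665-streptavidin, measured by time-resolved fluorescence. IC50 derived from percent inhibition against untreated controls.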

human Yes1 enzyme = target: T2, human Yes1 enzyme (Homo sapiens, UniProt P07947); experiment: Yes1 enzyme inhibitory activity (time-resolved fluorometry, biotinylated peptide phosphorylation); settings: read-out: YES_IC50
T2 construct: made in house
Method in brief: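 Inhibition was expressed against a compound-free control to give IC50, using TR-FRET read-out (Eu-cryptate anti-pTyr antibody, streptavidin-XL665).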

human Src enzyme = target: T3, human Src enzyme (Homo sapiens, UniProt P12931); experiment: Src enzyme inhibitory activity (time-resolved fluorometry, biotinylated peptide phosphorylation); settings: read-out: SRC_IC50
T3 construct: purchased Carna Biosciences, Inc. 08-173
Method in brief: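 Compounds were tested for blocking tyrosine phosphorylation of a biotinylated peptide substrate by recombinant human Src. Phosphorylated product was quantified by time-resolved fluorometry using europium cryptate and XL665 conjugates, and IC50 was calculated against the compound-free control.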

[1] = biotinylated peptide phosphorylation

T3 sequence (P12931 whole entry): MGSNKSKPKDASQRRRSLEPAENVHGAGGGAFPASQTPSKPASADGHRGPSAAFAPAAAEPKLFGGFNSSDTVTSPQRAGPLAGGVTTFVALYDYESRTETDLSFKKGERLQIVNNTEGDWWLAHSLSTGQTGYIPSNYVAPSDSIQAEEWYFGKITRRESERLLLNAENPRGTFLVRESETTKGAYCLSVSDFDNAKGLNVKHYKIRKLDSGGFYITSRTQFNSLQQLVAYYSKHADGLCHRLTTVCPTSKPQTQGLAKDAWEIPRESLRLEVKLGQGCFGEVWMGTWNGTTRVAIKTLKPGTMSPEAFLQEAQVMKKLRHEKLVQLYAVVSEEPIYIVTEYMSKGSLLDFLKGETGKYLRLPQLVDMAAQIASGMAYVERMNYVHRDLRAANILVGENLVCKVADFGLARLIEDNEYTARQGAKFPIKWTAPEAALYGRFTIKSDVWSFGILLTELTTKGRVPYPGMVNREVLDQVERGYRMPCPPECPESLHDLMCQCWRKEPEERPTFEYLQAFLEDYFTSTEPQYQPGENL
T2 sequence (P07947 whole entry): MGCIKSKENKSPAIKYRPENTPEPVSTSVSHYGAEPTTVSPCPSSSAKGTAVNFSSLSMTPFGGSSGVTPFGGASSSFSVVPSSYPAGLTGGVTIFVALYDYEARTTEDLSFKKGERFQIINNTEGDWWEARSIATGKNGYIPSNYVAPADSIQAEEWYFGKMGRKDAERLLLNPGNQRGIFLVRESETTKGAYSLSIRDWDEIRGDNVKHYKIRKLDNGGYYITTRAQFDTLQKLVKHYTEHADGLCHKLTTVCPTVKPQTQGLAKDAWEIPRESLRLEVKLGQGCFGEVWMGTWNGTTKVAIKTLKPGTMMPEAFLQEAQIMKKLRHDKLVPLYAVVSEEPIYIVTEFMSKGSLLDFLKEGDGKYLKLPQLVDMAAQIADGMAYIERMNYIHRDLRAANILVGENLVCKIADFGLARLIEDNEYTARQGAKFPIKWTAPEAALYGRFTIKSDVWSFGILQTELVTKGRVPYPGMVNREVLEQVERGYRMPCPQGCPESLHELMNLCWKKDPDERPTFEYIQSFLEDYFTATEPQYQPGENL
T1 sequence (P06239 whole entry): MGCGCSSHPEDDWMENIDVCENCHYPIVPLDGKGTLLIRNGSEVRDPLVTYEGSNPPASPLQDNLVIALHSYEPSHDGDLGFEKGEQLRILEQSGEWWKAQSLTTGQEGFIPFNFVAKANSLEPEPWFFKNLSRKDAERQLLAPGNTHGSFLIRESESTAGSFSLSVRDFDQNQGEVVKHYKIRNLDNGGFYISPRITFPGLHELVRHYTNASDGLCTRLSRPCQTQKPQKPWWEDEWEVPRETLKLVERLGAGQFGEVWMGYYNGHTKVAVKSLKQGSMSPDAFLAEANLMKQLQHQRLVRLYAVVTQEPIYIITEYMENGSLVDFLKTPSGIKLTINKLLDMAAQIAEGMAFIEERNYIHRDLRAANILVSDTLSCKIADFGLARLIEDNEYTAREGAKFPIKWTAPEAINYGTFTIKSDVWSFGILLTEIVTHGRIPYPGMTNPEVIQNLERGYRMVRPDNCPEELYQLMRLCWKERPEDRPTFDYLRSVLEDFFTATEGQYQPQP

In the case of `CC(C)N1CCC(c2cc3[nH]c(C(=O)c4cnn(-c5ccc(Oc6cccc(F)c6F)cc5F)c4N)cc3cc2F)CC1` [Example 5-1-011, [5-amino-1-[4-(2,3-difluorophenoxy)-2-fluorophenyl]pyrazol-4-yl]-[5-fluoro-6-(1-propan-2-ylpiperidin-4-yl)-1H-indol-2-yl]methanone], the IC50 (human Lck enzyme) is reported as 0.0026 µM, the IC50 (human Yes1 enzyme) is reported as 0.00086 µM and the IC50 (human Src enzyme) is reported as 0.014 µM.

With `Cc1cc(Oc2c(F)cccc2F)ncc1-n1ncc(C(=O)c2cc3cc(OCC(F)F)c(NS(=O)(=O)c4cccc(F)n4)cc3[nH]2)c1N` [Example 5-1-570, N-[2-[5-amino-1-[6-(2,6-difluorophenoxy)-4-methylpyridin-3-yl]pyrazole-4-carbonyl]-5-(2,2-difluoroethoxy)-1H-indol-6-yl]-6-fluoropyridine-2-sulfonamide] the IC50 (human Lck enzyme; [1]) was 0.0096 µM, the IC50 (human Yes1 enzyme; [1]) was 0.0021 µM and the IC50 (human Src enzyme; [1]) was 0.41 µM.

In the case of `Cc1cc(-n2ncc(C(=O)c3cc4cc(OC5CCN(C6CS(=O)(=O)C6)CC5)c(-c5ccccc5F)cc4[nH]3)c2N)ccc1Oc1ccccc1F` [Example 5-1-309, [5-amino-1-[4-(2-fluorophenoxy)-3-methylphenyl]pyrazol-4-yl]-[5-[1-(1,1-dioxothietan-3-yl)piperidin-4-yl]oxy-6-(2-fluorophenyl)-1H-indol-2-yl]methanone], the IC50 (human Lck enzyme) is reported as 0.41 µM, the IC50 (human Yes1 enzyme) is reported as 0.012 µM and the IC50 (human Src enzyme) is reported as 3.6 µM.

`Cc1cc2cc(C(=O)c3cnn(-c4ccc(Oc5c(F)cccc5F)cc4C)c3N)[nH]c2cc1NS(C)(=O)=O` [Example 5-1-092, N-[2-[5-amino-1-[4-(2,6-difluorophenoxy)-2-methylphenyl]pyrazole-4-carbonyl]-5-methyl-1H-indol-6-yl]methanesulfonamide] was tested, and the IC50 (human Lck enzyme) was 0.0028 µM, the IC50 (human Yes1 enzyme) was 0.00091 µM and the IC50 (human Src enzyme) was 0.016 µM.

`Cc1cc(Oc2ccccc2F)ccc1-n1ncc(C(=O)c2cc3cc(OCC(F)F)c(N4C(=O)[C@@H]5C[C@H](NS(=O)(=O)c6ccc7ccccc7c6)CN5C4=O)cc3[nH]2)c1N` [Example 5-1-276, N-[(6S,7aS)-2-[2-[5-amino-1-[4-(2-fluorophenoxy)-2-methylphenyl]pyrazole-4-carbonyl]-5-(2,2-difluoroethoxy)-1H-indol-6-yl]-1,3-dioxo-5,6,7,7a-tetrahydropyrrolo[1,2-c]imidazol-6-yl]naphthalene-2-sulfonamide] was tested, and the IC50 (human Lck enzyme) was 0.035 µM, the IC50 (human Yes1 enzyme) was 0.0022 µM and the IC50 (human Src enzyme) was 0.087 µM.

In the case of `Cc1cc(Oc2ccccc2F)ccc1-n1ncc(C(=O)c2cc3cc(F)c(N4C(=O)[C@@H]5C[C@H](NC(=O)OCC6c7ccccc7-c7ccccc76)CN5C4=O)cc3[nH]2)c1N` [Example 5-1-265, 9H-fluoren-9-ylmethyl N-[(6S,7aS)-2-[2-[5-amino-1-[4-(2-fluorophenoxy)-2-methylphenyl]pyrazole-4-carbonyl]-5-fluoro-1H-indol-6-yl]-1,3-dioxo-5,6,7,7a-tetrahydropyrrolo[1,2-c]imidazol-6-yl]carbamate], the IC50 (human Lck enzyme) is reported as 0.038 µM, the IC50 (human Yes1 enzyme) is reported as 0.0054 µM and the IC50 (human Src enzyme) is reported as 0.44 µM.

Molecule `Cc1cc2cc(C(=O)c3cnn(-c4c(C)cc(Oc5ccccc5F)cc4F)c3N)[nH]c2cc1N1CCOCC1` [Example 5-1-084, [5-amino-1-[2-fluoro-4-(2-fluorophenoxy)-6-methylphenyl]pyrazol-4-yl]-(5-methyl-6-morpholin-4-yl-1H-indol-2-yl)methanone] has an IC50 (human Lck enzyme) of 0.0045 µM, an IC50 (human Yes1 enzyme) of 0.0041 µM and an IC50 (human Src enzyme) of 0.034 µM.

For `Cc1cc(Oc2ccccc2F)ccc1-n1ncc(C(=O)c2cc3cc(OCC(F)F)c(N4CCC(N5CCOCC5)CC4)cc3[nH]2)c1N` [Example 4-25-028, [5-amino-1-[4-(2-fluorophenoxy)-2-methylphenyl]pyrazol-4-yl]-[5-(2,2-difluoroethoxy)-6-(4-morpholin-4-ylpiperidin-1-yl)-1H-indol-2-yl]methanone], the IC50 (human Lck enzyme; [1]) was 0.0049 µM, the IC50 (human Yes1 enzyme; [1]) was 0.00094 µM and the IC50 (human Src enzyme; [1]) was 0.013 µM.

`Cc1cc(Oc2ccccc2F)ccc1-n1ncc(C(=O)c2cc3cc(OC(F)F)c(NC4CN(S(C)(=O)=O)C4)cc3[nH]2)c1N` [Example 4-23-023, [5-amino-1-[4-(2-fluorophenoxy)-2-methylphenyl]pyrazol-4-yl]-[5-(difluoromethoxy)-6-[(1-methylsulfonylazetidin-3-yl)amino]-1H-indol-2-yl]methanone] showed an IC50 (human Lck enzyme; [1]) of 0.0058 µM, an IC50 (human Yes1 enzyme; [1]) of 0.00045 µM and an IC50 (human Src enzyme; [1]) of 0.017 µM.

Work on `Cc1cc2cc(C(=O)c3cnn(-c4cnc(Oc5ccccc5F)cc4C)c3N)[nH]c2cc1NS(=O)(=O)c1cc(C#N)cc(C(F)(F)F)c1` [Example 5-1-499, N-[2-[5-amino-1-[6-(2-fluorophenoxy)-4-methylpyridin-3-yl]pyrazole-4-carbonyl]-5-methyl-1H-indol-6-yl]-3-cyano-5-(trifluoromethyl)benzenesulfonamide] yielded an IC50 (human Lck enzyme; [1]) of 0.55 µM, an IC50 (human Yes1 enzyme; [1]) of 0.016 µM and an IC50 (human Src enzyme; [1]) of 1.8 µM.

Work on `Nc1c(C(=O)c2cc3cc(F)c(NS(=O)(=O)C4CC4)cc3[nH]2)cnn1-c1c(F)cc(Oc2cccc(F)c2F)cc1F` [Example 5-1-031, N-[2-[5-amino-1-[4-(2,3-difluorophenoxy)-2,6-difluorophenyl]pyrazole-4-carbonyl]-5-fluoro-1H-indol-6-yl]cyclopropanesulfonamide] yielded an IC50 (human Lck enzyme) of 0.034 µM, an IC50 (human Yes1 enzyme) of 0.0041 µM and an IC50 (human Src enzyme) of 0.22 µM.

`Cc1cc(Oc2ccccc2F)ccc1-n1ncc(C(=O)c2cc3cc(OCC(F)F)c(Br)cc3[nH]2)c1N` [Example 5-1-070, [5-amino-1-[4-(2-fluorophenoxy)-2-methylphenyl]pyrazol-4-yl]-[6-bromo-5-(2,2-difluoroethoxy)-1H-indol-2-yl]methanone] was tested, and the IC50 (human Lck enzyme) was 0.012 µM, the IC50 (human Yes1 enzyme) was 0.00085 µM and the IC50 (human Src enzyme) was 0.013 µM.

`Cc1cc(Oc2ccccc2F)ncc1-n1ncc(C(=O)c2cc3cc(NS(C)(=O)=O)c(Cl)cc3[nH]2)c1N` [Example 4-2-096, N-[2-[5-amino-1-[6-(2-fluorophenoxy)-4-methylpyridin-3-yl]pyrazole-4-carbonyl]-6-chloro-1H-indol-5-yl]methanesulfonamide] gave an IC50 (human Lck enzyme; [1]) of 0.0026 µM, an IC50 (human Yes1 enzyme; [1]) of 0.00038 µM and an IC50 (human Src enzyme; [1]) of 0.0095 µM.

`Cc1cc(Oc2ccccc2F)ccc1-n1ncc(C(=O)c2cc3cc(OCC(F)F)c(NS(=O)(=O)c4cccc(Cl)c4)cc3[nH]2)c1N` [Example 5-1-417, N-[2-[5-amino-1-[4-(2-fluorophenoxy)-2-methylphenyl]pyrazole-4-carbonyl]-5-(2,2-difluoroethoxy)-1H-indol-6-yl]-3-chlorobenzenesulfonamide] showed an IC50 (human Lck enzyme; [1]) of 0.13 µM, an IC50 (human Yes1 enzyme; [1]) of 0.0058 µM and an IC50 (human Src enzyme; [1]) of 0.24 µM.

Molecule `Cc1cc(-n2ncc(C(=O)c3cc4cc(C)c(N5C(=O)NC6(CCC6)C5=O)cc4[nH]3)c2N)ccc1Oc1ccccc1F` [Example 5-1-468, 7-[2-[5-amino-1-[4-(2-fluorophenoxy)-3-methylphenyl]pyrazole-4-carbonyl]-5-methyl-1H-indol-6-yl]-5,7-diazaspiro[3.4]octane-6,8-dione] has an IC50 (human Lck enzyme; [1]) of 0.43 µM, an IC50 (human Yes1 enzyme; [1]) of 0.011 µM and an IC50 (human Src enzyme; [1]) of 7.8 µM.

For `Cc1cc(Oc2c(F)cccc2F)ncc1-n1ncc(C(=O)c2cc3cc(OCC(F)F)c(N4CCOCC4)cc3[nH]2)c1N` [Example 4-1-016, [5-amino-1-[6-(2,6-difluorophenoxy)-4-methylpyridin-3-yl]pyrazol-4-yl]-[5-(2,2-difluoroethoxy)-6-morpholin-4-yl-1H-indol-2-yl]methanone], the IC50 (human Lck enzyme; [1]) was 0.0075 µM, the IC50 (human Yes1 enzyme; [1]) was 0.0021 µM and the IC50 (human Src enzyme; [1]) was 0.014 µM.

`Cc1cc(Oc2c(F)cccc2F)ncc1-n1ncc(C(=O)c2cc3cc(OCC(F)F)c(N4C(=O)N[C@]5(CCNC5)C4=O)cc3[nH]2)c1N` [Example 5-1-348, (5S)-3-[2-[5-amino-1-[6-(2,6-difluorophenoxy)-4-methylpyridin-3-yl]pyrazole-4-carbonyl]-5-(2,2-difluoroethoxy)-1H-indol-6-yl]-1,3,7-triazaspiro[4.4]nonane-2,4-dione] gave an IC50 (human Lck enzyme) of 0.002 µM, an IC50 (human Yes1 enzyme) of 0.0008 µM and an IC50 (human Src enzyme) of 0.013 µM.

`Cc1cc(Oc2ccccc2F)cc(F)c1-n1ncc(C(=O)c2cc3cc(OCC(F)F)c(NS(=O)(=O)C4CC4)cc3[nH]2)c1N` [Example 4-24-024, N-[2-[5-amino-1-[2-fluoro-4-(2-fluorophenoxy)-6-methylphenyl]pyrazole-4-carbonyl]-5-(2,2-difluoroethoxy)-1H-indol-6-yl]cyclopropanesulfonamide] gave an IC50 (human Lck enzyme; [1]) of 0.046 µM, an IC50 (human Yes1 enzyme; [1]) of 0.0033 µM and an IC50 (human Src enzyme; [1]) of 0.13 µM.

Molecule `Cc1cc(Oc2ccccc2F)ncc1-n1ncc(C(=O)c2cc3cc(OCC(F)F)c(NS(=O)(=O)c4cc(F)cc(F)c4)cc3[nH]2)c1N` [Example 5-1-420, N-[2-[5-amino-1-[6-(2-fluorophenoxy)-4-methylpyridin-3-yl]pyrazole-4-carbonyl]-5-(2,2-difluoroethoxy)-1H-indol-6-yl]-3,5-difluorobenzenesulfonamide] has an IC50 (human Lck enzyme; [1]) of 0.16 µM, an IC50 (human Yes1 enzyme; [1]) of 0.0063 µM and an IC50 (human Src enzyme; [1]) of 0.6 µM.

Work on `Cc1cc(Oc2ccccc2F)ccc1-n1ncc(C(=O)c2cc3cc(OCC(F)F)c(NS(=O)(=O)c4cc(F)cc(F)c4)cc3[nH]2)c1N` [Example 5-1-415, N-[2-[5-amino-1-[4-(2-fluorophenoxy)-2-methylphenyl]pyrazole-4-carbonyl]-5-(2,2-difluoroethoxy)-1H-indol-6-yl]-3,5-difluorobenzenesulfonamide] yielded an IC50 (human Lck enzyme; [1]) of 0.11 µM, an IC50 (human Yes1 enzyme; [1]) of 0.0059 µM and an IC50 (human Src enzyme; [1]) of 0.28 µM.

`Cc1cc(Oc2ccccc2F)ccc1-n1ncc(C(=O)c2cc3cc(C(C)C)c(NS(C)(=O)=O)cc3[nH]2)c1N` [Example 5-1-267, N-[2-[5-amino-1-[4-(2-fluorophenoxy)-2-methylphenyl]pyrazole-4-carbonyl]-5-propan-2-yl-1H-indol-6-yl]methanesulfonamide] showed an IC50 (human Lck enzyme) of 0.017 µM, an IC50 (human Yes1 enzyme) of 0.002 µM and an IC50 (human Src enzyme) of 0.021 µM.

`CCN(c1cc2[nH]c(C(=O)c3cnn(-c4cnc(Oc5c(F)cccc5F)cc4C)c3N)cc2cc1F)S(C)(=O)=O` [Example 4-2-126] showed an IC50 (human Lck enzyme; [1]) of 0.002 µM, an IC50 (human Yes1 enzyme; [1]) of 0.0013 µM and an IC50 (human Src enzyme; [1]) of 0.013 µM.
